Some results are limits rather than exact numbers.

The target in the first test is HIS-TGF-βR2 WT (Homo sapiens (Human), UniProt P37173). The experiment in a line: HTRF probe displacement assay with HIS-TGF-βR2 WT.
Chain of HIS-TGF-βR2 WT (P37173 23-567): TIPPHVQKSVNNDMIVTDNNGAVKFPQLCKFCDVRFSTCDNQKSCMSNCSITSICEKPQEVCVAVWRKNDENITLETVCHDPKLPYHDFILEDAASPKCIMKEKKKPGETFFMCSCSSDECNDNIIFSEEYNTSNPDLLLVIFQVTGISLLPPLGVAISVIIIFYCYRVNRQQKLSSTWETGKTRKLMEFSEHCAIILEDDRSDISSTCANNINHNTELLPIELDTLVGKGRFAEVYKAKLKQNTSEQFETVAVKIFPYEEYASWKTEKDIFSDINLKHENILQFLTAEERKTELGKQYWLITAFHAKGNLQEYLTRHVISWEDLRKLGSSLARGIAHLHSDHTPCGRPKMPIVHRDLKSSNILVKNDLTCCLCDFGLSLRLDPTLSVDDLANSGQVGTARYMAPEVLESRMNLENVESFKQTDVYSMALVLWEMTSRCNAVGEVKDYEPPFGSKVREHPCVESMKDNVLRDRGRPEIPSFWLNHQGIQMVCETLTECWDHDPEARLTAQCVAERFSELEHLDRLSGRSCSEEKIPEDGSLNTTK
Conditions: not given
(In general: TR-FRET usually uses a lanthanide donor and a delayed reading to cut background.)
By IC50 is commonly meant the concentration that inhibits the measured activity by half. For the molecule `NC(=O)c1cnc2ccc(-c3c(-c4ccc(F)c(Cl)c4)ncn3CCC(F)(F)F)nn12` [115′, 6-(4-(3-chloro-4-fluorophenyl)-1-(3,3,3-trifluoropropyl)-1H-imidazol-5-yl)imidazo[1,2-b]pyridazine-3-carboxamide], the IC50 was more than 15000 nM.

Staying with this test, now noted: read-out: TGFBr2 IC50; HTRF probe displacement, 1 nM HIS-TGF-βR2 WT, 1 hour at room temperature.
As to `N#Cc1cnc2ccc(-c3c(-c4ccc(F)c(C(F)(F)F)c4)ncn3CC(F)F)nn12` [260′, 6-(1-(2,2-difluoroethyl)-4-(4-fluoro-3-(trifluoromethyl)phenyl)-1H-imidazol-5-yl)imidazo[1,2-b]pyridazine-3-carbonitrile], the half-maximal inhibitory concentration (IC50) is more than 15000 nM.
Take `NC(=O)c1cnc2ccc(-c3c(-c4ccc(F)cc4)ncn3C3CC(F)(F)C3)cn12` [180′, 6-(1-(3,3-difluorocyclobutyl)-4-(4-fluorophenyl)-1H-imidazol-5-yl)imidazo[1,2-a]pyridine-3-carboxamide]: the IC50 was more than 15000 nM.
The same measure, in the same setting: with `N#Cc1cnc2ccc(-c3c(-c4cccc(-c5ccccc5)c4)ncn3CC(F)F)nn12` [257′, 6-(4-([1,1′-biphenyl]-3-yl)-1-(2,2-difluoroethyl)-1H-imidazol-5-yl)imidazo[1,2-b]pyridazine-3-carbonitrile] the figure was more than 15000 nM; with `CC(=O)N1CCn2c(nc(-c3ccc(F)cc3)c2-c2ccc3ncc(C(N)=O)n3c2)C1` [292′, 6-(7-acetyl-2-(4-fluorophenyl)-5,6,7,8-tetrahydroimidazo[1,2-a]pyrazin-3-yl)imidazo[1,2-a]pyridine-3-carboxamide], more than 15000 nM.
Consider `N#Cc1cnc2ccc(-c3c(-c4ccc(F)cc4C(F)(F)F)ncn3CC(F)F)nn12` [261′, 6-(1-(2,2-difluoroethyl)-4-(4-fluoro-2-(trifluoromethyl)phenyl)-1H-imidazol-5-yl)imidazo[1,2-b]pyridazine-3-carbonitrile], for which the IC50 is more than 15000 nM.

In another test the target is HIS-TGF-βR1 T204D (Homo sapiens (Human), UniProt P36897, T204D). The test is described as follows: HTRF probe displacement assay with HIS-TGF-βR1 T204D.
Chain of HIS-TGF-βR1 T204D (P36897 34-503 T204D): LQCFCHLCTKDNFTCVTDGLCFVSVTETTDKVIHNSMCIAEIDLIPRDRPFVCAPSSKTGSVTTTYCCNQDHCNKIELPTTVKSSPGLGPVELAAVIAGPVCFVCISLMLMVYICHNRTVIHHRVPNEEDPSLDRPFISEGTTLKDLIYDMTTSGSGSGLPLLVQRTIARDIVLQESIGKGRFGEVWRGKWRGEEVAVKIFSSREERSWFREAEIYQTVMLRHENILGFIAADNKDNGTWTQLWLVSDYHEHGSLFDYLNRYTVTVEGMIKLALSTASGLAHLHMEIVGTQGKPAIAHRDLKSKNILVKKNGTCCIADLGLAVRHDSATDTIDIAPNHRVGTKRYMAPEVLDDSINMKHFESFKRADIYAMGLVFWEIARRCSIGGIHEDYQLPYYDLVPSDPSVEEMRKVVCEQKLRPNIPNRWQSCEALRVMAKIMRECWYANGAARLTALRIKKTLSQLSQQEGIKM
Conditions: not given
`NC(=O)c1cnc2ccc(-c3c(-c4ccc(F)c(Cl)c4)ncn3CCC(F)(F)F)nn12` [115′, 6-(4-(3-chloro-4-fluorophenyl)-1-(3,3,3-trifluoropropyl)-1H-imidazol-5-yl)imidazo[1,2-b]pyridazine-3-carboxamide] displayed an IC50 of 4.6 nM.

Staying with this test, now noted: read-out: TGFbr1 IC50; HTRF probe displacement, 1 nM HIS-TGF-βR1 T204D, 1 hour at room temperature.
As for `N#Cc1cnc2ccc(-c3c(-c4ccc(F)c(C(F)(F)F)c4)ncn3CC(F)F)nn12` [260′, 6-(1-(2,2-difluoroethyl)-4-(4-fluoro-3-(trifluoromethyl)phenyl)-1H-imidazol-5-yl)imidazo[1,2-b]pyridazine-3-carbonitrile], the IC50 is 8.8 nM.
On the same count and under the same terms, with `NC(=O)c1cnc2ccc(-c3c(-c4ccc(F)cc4)ncn3C3CC(F)(F)C3)cn12` [180′, 6-(1-(3,3-difluorocyclobutyl)-4-(4-fluorophenyl)-1H-imidazol-5-yl)imidazo[1,2-a]pyridine-3-carboxamide] the figure was 3.7 nM; with `Fc1ccc(-c2ncn(C3CC(F)(F)C3)c2-c2ccc3nccn3c2)cc1Cl` [184′, 6-(4-(3-chloro-4-fluorophenyl)-1-(3,3-difluorocyclobutyl)-1H-imidazol-5-yl)imidazo[1,2-a]pyridine], 54.5 nM.
For `CC(CCO)n1cnc(-c2ccc(F)cc2)c1-c1ccc2ncc(C#N)n2c1` (centres unmarked) [80′, 6-(4-(4-fluorophenyl)-1-(4-hydroxybutan-2-yl)-1H-imidazol-5-yl)imidazo[1,2-a]pyridine-3-carbonitrile], the 50% inhibitory concentration (IC50) is 31 nM.
For `NC(=O)c1cnc2ccc(-c3c(-c4ccc(F)cc4)nc4n3CCNC4)cn12` [Example 290′, 6-(2-(4-fluorophenyl)-5,6,7,8-tetrahydroimidazo[1,2-60]pyrazin-3-yl)imidazo[1,2-a]pyridine-3-carboxamide], the IC50 worked out at 21.6 nM.
Still for that read-out and setting: with `N#Cc1cnc2ccc(-c3c(-c4ccccc4C(N)=O)ncn3CC(F)F)nn12` [251′, 2-(5-(3-cyanoimidazo[1,2-b]pyridazin-6-yl)-1-(2,2-difluoroethyl)-1H-imidazol-4-yl)benzamide] the figure was 73.5 nM; with `CC(C)n1cnc(-c2ccc(F)cc2)c1-c1ccc2ncc(C#N)n2c1` [79′, 6-(4-(4-fluorophenyl)-1-isopropyl-1H-imidazol-5-yl)imidazo[1,2-a]pyridine-3-carbonitrile], 55.3 nM.
On the same count and under the same terms, next, `NC(=O)c1cnc2ccc(-c3c(-c4ccc(F)cc4)ncn3C3CC3)nn12` [109′, 6-(1-cyclopropyl-4-(4-fluorophenyl)-1H-imidazol-5-yl)imidazo[1,2-b]pyridazine-3-carboxamide]: 2.5 nM; `CC[C@@H](CO)n1cnc(-c2ccc(F)cc2)c1-c1ccc2ncc(C#N)n2n1` [Example 6′, (S)-6-(4-(4-fluorophenyl)-1-(1-hydroxybutan-2-yl)-1H-imidazol-5-yl)imidazo[1,2-b]pyridazine-3-carbonitrile]: 5 nM; `CCCn1cnc(-c2ccc(F)cc2)c1-c1ccc2ncc(C(N)=O)n2c1` [177′, 6-(4-(4-fluorophenyl)-1-propyl-1H-imidazol-5-yl)imidazo[1,2-b]pyridine-3-carboxamide]: 1.1 nM.
In the case of `NC(=O)c1cnc2ccc(-c3c(-c4ccc(F)cc4)ncn3C3CNC3)nn12` [195B′, 6-(1-(azetidin-3-yl)-4-(4-fluorophenyl)-1H-imidazol-5-yl)imidazo[1,2-b]pyridazine-3-carboxamide], the IC50 was found to be 45.4 nM.
On to `N#Cc1cnc2ccc(-c3c(-c4ccc(N)cc4)ncn3CC(F)F)nn12` [264′, 6-(4-(4-aminophenyl)-1-(2,2-difluoroethyl)-1H-imidazol-5-yl)imidazo[1,2-b]pyridazine-3-carbonitrile], for which the IC50 came to 516 nM.
The same measure, in the same setting: with `CN1CCn2c(nc(-c3ccc(F)cc3)c2-c2ccc3ncc(C(N)=O)n3c2)C1` [Example 293′, 6-(2-(4-fluorophenyl)-7-methyl-5,6,7,8-tetrahydroimidazo[1,2-a]pyrazin-3-yl)imidazo[1,2-a]pyridine-3-carboxamide] the figure was 43.3 nM.
In the case of `CC(C1CC1)n1cnc(-c2ccc(F)cc2)c1-c1ccc2ncc(C#N)n2c1` (centres unmarked) [88′, 6-(1-(1-cyclopropylethyl)-4-(4-fluorophenyl)-1H-imidazol-5-yl)imidazo[1,2-a]pyridine-3-carbonitrile], the IC50 stood at 19.3 nM.
As for `N#Cc1cnc2ccc(-c3c(-c4ccc(F)c(Cl)c4)ncn3CCCF)nn12` [54′, 6-(4-(3-chloro-4-fluorophenyl)-1-(3-fluoropropyl)-1H-imidazol-5-yl)imidazo[1,2-b]pyridazine-3-carbonitrile], the IC50 is 0.8 nM.
Still for that read-out and setting: with `CC(C)OCCn1cnc(-c2ccc(F)cc2)c1-c1ccc2ncc(C#N)n2n1` [11′, 6-(4-(4-fluorophenyl)-1-(2-isopropoxyethyl)-1H-imidazol-5-yl)imidazo[1,2-b]pyridazine-3-carbonitrile] the figure was 3 nM; with `N#Cc1cnc2ccc(-c3c(-c4ccc(F)c(Cl)c4)ncn3C3CCC3)nn12` [58′, 6-(4-(3-chloro-4-fluorophenyl)-1-cyclobutyl-1H-imidazol-5-yl)imidazo[1,2-b]pyridazine-3-carbonitrile], 0.8 nM; with `N#Cc1cnc2ccc(-c3c(-c4ccc(F)cc4)ncn3CC3CCC3)cn12` [72′, 6-(1-(cyclobutylmethyl)-4-(4-fluorophenyl)-1H-imidazol-5-yl)imidazo[1,2-a]pyridine-3-carbonitrile], 67.8 nM.
The same measure, in the same setting: with `N#Cc1cnc2ccc(-c3c(-c4ccc(F)cc4)ncn3CCCO)nn12` [15′, 6-(4-(4-fluorophenyl)-1-(3-hydroxypropyl)-1H-imidazol-5-yl)imidazo[1,2-b]pyridazine-3-carbonitrile] the figure was 2 nM; with `CC(C)(F)Cn1cnc(-c2ccc(F)c(Cl)c2)c1-c1ccc2ncc(C#N)n2n1` [57′, 6-(4-(3-chloro-4-fluorophenyl)-1-(2-fluoro-2-methylpropyl)-1H-imidazol-5-yl)imidazo[1,2-b]pyridazine-3-carbonitrile], 1.5 nM; with `CC(=O)Nc1nc(-c2ccc(F)cc2)c(-c2ccc3nccn3c2)[nH]1` [Example 295′, N-(4-(4-fluorophenyl)-5-(imidazo[1,2-a]pyridin-6-yl)-1H-imidazol-2-yl)acetamide], 55 nM.
On to `CC(F)(F)Cn1cnc(-c2ccc(F)c(Cl)c2)c1-c1ccc2ncc(C#N)n2n1` [56′, 6-(4-(3-chloro-4-fluorophenyl)-1-(2,2-difluoropropyl)-1H-imidazol-5-yl)imidazo[1,2-b]pyridazine-3-carbonitrile], for which the IC50 is 0.8 nM.

The values are drawn from patent US9884868B2, “TGF-beta inhibitors” (Rigel Pharmaceuticals, Inc., priority 2015, dated 2018).
